Measurements taken from patent US5034520A, “Process for recovering heparinic oligosaccharides with an affinity for cell growth factors” (Sanofi, priority 1986, dated 1991).

What was measured:
[1] = system: human endothelial cells of the umbilical vein; experiment: Proliferation of human umbilical vein endothelial cells, with or without FGFa; type: cell-based
Procedure: At confluence (5-7 days), the cells are detached by an EDTA-trypsin mixture.
48 hours latter, growth factor is added again. After 4 days of culture, the cells are detached by the EDTA-trypsin mixture and the cells are counted by means of a cell counter (Coulter Counter ® Coultronics). Each experimental curve (FIG. 14A-D) represents a typical experiment conducted in triplicate. Each experiment is repeated 2 to 3 times.

[2] = system: LE II cells (endothelial cells of mouse lung); experiment: Tritiated thymidine incorporation in quiescent LE II cells, with or without anionic FGF; type: cell-based
Procedure: LE II cells (endothelial cells of mouse lung) are cultivated on plates containing 24 wells in the presence of 10% foetal calf serum until 3/4 of confluence is attained.
The cells are then maintained for 48 hours in only 0.2% serum and rendered quiescent.
The growth medium is then supplemented with either fibroblast growth factor (FGF) or the oligosaccharide fragments to be tested or both products simultaneously (FGF+product to be tested).
The culture is maintained for a further 24 hours and tritiated thymidine is added 4 hours before the end of the experiment.
The radioactivity incorporated is then counted; each measurement is made in triplicate.

FGFa: acidic FGF (FGFa)
ED 50 of FGFa (50% of maximal proliferation) ([1]; FGFa in the absence of oligosaccharides, 10% FCS): about 7 ng/ml
maximal increase of the number of cells ([1]; FGFa without oligosaccharides, versus 10% FCS alone): 230%

B1: anionic FGF: anionic FGF prepared from beef brain according to Lobb and Fett (protein, UniProt P03968 16-155, looked up)
Fibroblast growth factor 1: FNLPLGNYKKPKLLYCSNGGYFLRILPDGTVDGTKDRSDQHIQLQLCAESIGEVYIKSTETGQFLAMDTDGLLYGSQTPNEECLFLERLEENHYNTYISKKHAEKHWFVGLKKNGRSKLGPRTHFGQKAILFLPLPVSSD
dose giving plateau of stimulation ([2]; anionic FGF alone (FIG. 10)): 5 ng/mL
plateau of thymidine incorporation after stimulation ([2]; anionic FGF alone, 5 ng/ml (FIG. 10)): 126,000 cpm
